From patent publication US20240238297A1, “USES AND METHODS FOR RECURRENT PRIMARY CNS NEOPLASMS” (CHIMERIX, INC., priority 2021, published 2024)
Where a name gives a salt, the structure may show the parent alone.

What was measured:
[1] = system: diffuse midline glioma, H3 K27M-mutant; settings: patients with DMG H3K27M; cited from earlier work
high grade gliomas = settings: advanced cancer patients; cited from earlier work
endometrial cancer = settings: advanced cancer patients; cited from earlier work
[2] = solubility in water, ONC-201 dihydrochloride salt vs free base; format: physicochemical
Protocol: (§1) Dihydrochloride salts of compounds within the class of impiridones of which ONC-206 is a member, achieve unexpected technical effects. […] In addition, after two months at 25° C. and at 40° C., the percentage of impurities in the dihydrochloride salt is not detected and 3%, respectively; while for the free base the corresponding the percentage of impurities is 20% and 24%, respectively. This technical effect appears to extend to the class of impiridones.

[3] = stability: percentage of impurities after two months; format: physicochemical
Protocol: as §1

[4] = pharmacokinetics/toxicokinetics in dogs; settings: dog, in vivo

Cc1ccccc1CN1C(=O)C2=C(CCN(Cc3ccccc3)C2)N2CCN=C12 [ONC201, 7-benzyl-4-(2-methylbenzyl)-2,4,6,7,8,9-hexahydroimidazo[1,2-a]pyrido[3,4-e]pyrimidin-5(1H)-one]
tumor response in patients [1]: induced durable tumor regressions
RANO response (high grade gliomas): several patients achieved a RANO response
PFS compared to historical control (endometrial cancer): several patients experienced prolonged PFS

Cc1ccccc1CN1C(=O)C2=C(CCN(Cc3ccccc3)C2)N2CCN=C12 [ONC-201 dihydrochloride salt, 7-benzyl-4-(2-methylbenzyl)-2,4,6,7,8,9-hexahydroimidazo[1,2-a]pyrido[3,4-e]pyrimidin-5(1H)-one]
solubility in water [2]: greater than 50 mg/mL
percentage of impurities ([3]; after two months at 25° C.): not detected
percentage of impurities ([3]; after two months at 40° C.): 3%

Cc1ccccc1CN1C(=O)C2=C(CCN(Cc3ccccc3)C2)N2CCN=C12 [ONC-201 free base, 7-benzyl-4-(2-methylbenzyl)-2,4,6,7,8,9-hexahydroimidazo[1,2-a]pyrido[3,4-e]pyrimidin-5(1H)-one]
solubility in water [2]: less than 1 mg/mL
percentage of impurities ([3]; after two months at 25° C.): 20%
percentage of impurities ([3]; after two months at 40° C.): 24%

O=C1C2=C(CCN(Cc3ccccc3)C2)N2CCN=C2N1Cc1ccc(F)cc1F [ONC206, 7-benzyl-4-(2,4-difluorobenzyl)-2,4,6,7,8,9-hexahydroimidazo[1,2-a]pyrido[3,4-e]pyrimidin-5(1H)-one]
half-life ([4]; beagle): 42 to 426 min
CL/F ([4]; both, Beagle, po): 83.3 to 1680 mL/min/kg
Vd/F ([4]; both, Beagle, po): 25.2 to 259 L/kg
half-life ([4]; both, Beagle, po): 42 to 426 min
